Tested on: 362531-283-R-J2-PDC complex spheroid viability
Experiment: Anticancer human tumor 362531-283-R-J2-PDC patient-derived colon adenocarcinoma cell line growth inhibition [RAS]
Conditions: for IC50: curve of first compound; for viability, T/C: stronger effect = lower value
Outline: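 Multi-cell-type spheroids: tumor cells plus HUVEC endothelial cells and mesenchymal stem cells. RAS-pathway inhibitors were combined with targeted agents, each dosed in half-log steps down from clinical Cmax, or from 10 microM when Cmax was unknown.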

[1] = second compound 0.00316 µM, first compound 0.0316 µM
[2] = second compound 0.00316 µM, first compound 0.1 µM
[3] = second compound 0.00316 µM, first compound 0.316 µM
[4] = second compound 0.00316 µM, first compound 1 µM
[5] = second compound 0.00316 µM, first compound 3.16 µM
[6] = second compound 0.00316 µM, first compound 10 µM
[7] = second compound 0.01 µM, first compound 0.0316 µM
[8] = second compound 0.01 µM, first compound 0.1 µM
[9] = second compound 0.01 µM, first compound 0.316 µM
[10] = second compound 0.01 µM, first compound 1 µM
[11] = second compound 0.01 µM, first compound 3.16 µM
[12] = second compound 0.01 µM, first compound 10 µM
[13] = second compound 0.0316 µM, first compound 0.0316 µM
[14] = second compound 0.0316 µM, first compound 0.1 µM
[15] = second compound 0.0316 µM, first compound 0.316 µM
[16] = second compound 0.0316 µM, first compound 1 µM
[17] = second compound 0.0316 µM, first compound 3.16 µM
[18] = second compound 0.0316 µM, first compound 10 µM
[19] = second compound 0.1 µM, first compound 0.0316 µM
[20] = second compound 0.1 µM, first compound 0.1 µM
[21] = second compound 0.1 µM, first compound 0.316 µM
[22] = second compound 0.1 µM, first compound 1 µM
[23] = second compound 0.1 µM, first compound 3.16 µM
[24] = second compound 0.1 µM, first compound 10 µM
[25] = second compound 0.316 µM, first compound 0.0316 µM
[26] = second compound 0.316 µM, first compound 0.1 µM
[27] = second compound 0.316 µM, first compound 0.316 µM
[28] = second compound 0.316 µM, first compound 1 µM
[29] = second compound 0.316 µM, first compound 3.16 µM
[30] = second compound 0.316 µM, first compound 10 µM
[31] = second compound 1 µM, first compound 0.0316 µM
[32] = second compound 1 µM, first compound 0.1 µM
[33] = second compound 1 µM, first compound 0.316 µM
[34] = second compound 1 µM, first compound 1 µM
[35] = second compound 1 µM, first compound 3.16 µM
[36] = second compound 1 µM, first compound 10 µM
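Note: spheroids exposed to the agents for 7 days before readout.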
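Throughout, for viability, T/C: luminescence viability as percent of DMSO vehicle control wells.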

`Cc1nc(N2CCC3(CC2)COC(C)C3N)c(CO)nc1Sc1ccnc(N)c1Cl` (stereo unspecified) + C=CC(=O)N1CCN(c2nc(OCC3CCCN3C)nc3c(F)c(-c4nc(N)cc(C)c4C(F)(F)F)c(Cl)cc23)C(C)C1 was tested. Which IC50 (second compound 0.00316 µM) did it give?
The IC50 was greater than 10 µM.

What about the IC50 (second compound 0.01 µM) of the same compound?
The IC50 was greater than 10 µM.

And the IC50 (second compound 0.0316 µM)?
The IC50 was greater than 10 µM.

What about the IC50 (second compound 0.1 µM) of the same compound?
Its IC50 is greater than 10 µM.

And the IC50 (second compound 0.316 µM)?
The IC50 was greater than 10 µM.

And the IC50 (second compound 1 µM)?
The IC50 was greater than 10 µM.

And the viability, T/C [1]?
The viability, T/C was 111%.

What about the viability, T/C [2] of the same compound?
Its viability, T/C is 102%.

And the viability, T/C [3]?
The viability, T/C was 103%.

What about the viability, T/C [4] of the same compound?
The viability, T/C was 94.3%.

What about the viability, T/C [5] of the same compound?
The viability, T/C was 83.5%.

What about the viability, T/C [6] of the same compound?
The viability, T/C was 69.2%.

What about the viability, T/C [7] of the same compound?
Its viability, T/C is 110%.

And the viability, T/C [8]?
The viability, T/C was 101%.

What about the viability, T/C [9] of the same compound?
Its viability, T/C is 97.5%.

What about the viability, T/C [10] of the same compound?
Its viability, T/C is 86.3%.

And the viability, T/C [11]?
The viability, T/C was 85.9%.

What about the viability, T/C [12] of the same compound?
Its viability, T/C is 77.5%.

What about the viability, T/C [13] of the same compound?
The viability, T/C was 111%.

What about the viability, T/C [14] of the same compound?
Its viability, T/C is 111%.

What about the viability, T/C [15] of the same compound?
Its viability, T/C is 99.3%.

What about the viability, T/C [16] of the same compound?
The viability, T/C was 96.8%.

What about the viability, T/C [17] of the same compound?
Its viability, T/C is 81.5%.

What about the viability, T/C [18] of the same compound?
The viability, T/C was 73.8%.

And the viability, T/C [19]?
The viability, T/C was 117%.

What about the viability, T/C [20] of the same compound?
The viability, T/C was 104%.

What about the viability, T/C [21] of the same compound?
Its viability, T/C is 98.4%.

And the viability, T/C [22]?
The viability, T/C was 92.4%.

And the viability, T/C [23]?
Its viability, T/C is 82.4%.

What about the viability, T/C [24] of the same compound?
Its viability, T/C is 79.8%.

And the viability, T/C [25]?
Its viability, T/C is 111%.

What about the viability, T/C [26] of the same compound?
The viability, T/C was 101%.

What about the viability, T/C [27] of the same compound?
Its viability, T/C is 118%.

And the viability, T/C [28]?
The viability, T/C was 89.2%.

And the viability, T/C [29]?
Its viability, T/C is 88.5%.

What about the viability, T/C [30] of the same compound?
The viability, T/C was 79.3%.

What about the viability, T/C [31] of the same compound?
Its viability, T/C is 108%.

And the viability, T/C [32]?
Its viability, T/C is 111%.

What about the viability, T/C [33] of the same compound?
Its viability, T/C is 101%.

What about the viability, T/C [34] of the same compound?
The viability, T/C was 86.1%.

And the viability, T/C [35]?
The viability, T/C was 83.1%.

What about the viability, T/C [36] of the same compound?
Its viability, T/C is 68%.

`NC1c2ccccc2OC12CCN(c1cnc3c(N4CCCc5ncccc54)n[nH]c3n1)CC2` (stereo unspecified) + C=CC(=O)N1CCN(c2nc(OCC3CCCN3C)nc3c(F)c(-c4nc(N)cc(C)c4C(F)(F)F)c(Cl)cc23)C(C)C1 was tested. Which IC50 (second compound 0.00316 µM) did it give?
Its IC50 is 3.84 µM.

What about the IC50 (second compound 0.01 µM) of the same compound?
The IC50 was 5.87 µM.

And the IC50 (second compound 0.0316 µM)?
The IC50 was 4.67 µM.

What about the IC50 (second compound 0.1 µM) of the same compound?
The IC50 was 6.19 µM.

And the IC50 (second compound 0.316 µM)?
Its IC50 is 7.66 µM.

And the IC50 (second compound 1 µM)?
Its IC50 is 8.02 µM.

What about the viability, T/C [1] of the same compound?
The viability, T/C was 102%.

And the viability, T/C [2]?
Its viability, T/C is 76.8%.

And the viability, T/C [3]?
The viability, T/C was 83.8%.

What about the viability, T/C [4] of the same compound?
The viability, T/C was 60%.

And the viability, T/C [5]?
The viability, T/C was 56.2%.

What about the viability, T/C [6] of the same compound?
The viability, T/C was 37.9%.

What about the viability, T/C [7] of the same compound?
The viability, T/C was 92.1%.

What about the viability, T/C [8] of the same compound?
The viability, T/C was 82.2%.

And the viability, T/C [9]?
The viability, T/C was 75.1%.

What about the viability, T/C [10] of the same compound?
The viability, T/C was 72.5%.

And the viability, T/C [11]?
Its viability, T/C is 57.8%.

And the viability, T/C [12]?
Its viability, T/C is 42.3%.

And the viability, T/C [13]?
The viability, T/C was 89.4%.

And the viability, T/C [14]?
Its viability, T/C is 86.7%.

And the viability, T/C [15]?
The viability, T/C was 73.3%.

What about the viability, T/C [16] of the same compound?
Its viability, T/C is 66.6%.

And the viability, T/C [17]?
Its viability, T/C is 58.3%.

And the viability, T/C [18]?
Its viability, T/C is 38.4%.

And the viability, T/C [19]?
Its viability, T/C is 93%.

And the viability, T/C [20]?
The viability, T/C was 83.6%.

And the viability, T/C [21]?
Its viability, T/C is 79.2%.

What about the viability, T/C [22] of the same compound?
The viability, T/C was 64%.

What about the viability, T/C [23] of the same compound?
Its viability, T/C is 61.9%.

What about the viability, T/C [24] of the same compound?
Its viability, T/C is 43%.

What about the viability, T/C [25] of the same compound?
The viability, T/C was 94.4%.

What about the viability, T/C [26] of the same compound?
The viability, T/C was 91.6%.

What about the viability, T/C [27] of the same compound?
The viability, T/C was 78.4%.

What about the viability, T/C [28] of the same compound?
Its viability, T/C is 68.9%.

And the viability, T/C [29]?
The viability, T/C was 65.7%.

And the viability, T/C [30]?
The viability, T/C was 44.5%.

What about the viability, T/C [31] of the same compound?
Its viability, T/C is 91%.

And the viability, T/C [32]?
The viability, T/C was 79.2%.

What about the viability, T/C [33] of the same compound?
The viability, T/C was 74.7%.

What about the viability, T/C [34] of the same compound?
Its viability, T/C is 70%.

And the viability, T/C [35]?
Its viability, T/C is 61.9%.

What about the viability, T/C [36] of the same compound?
Its viability, T/C is 45.7%.

Which results are given for `Nc1ccn(C2OC(CO)C(O)C2(F)F)c(=O)n1` (stereo unspecified) + C=CC(=O)N1CCN(c2nc(OCC3CCCN3C)nc3c(F)c(-c4nc(N)cc(C)c4C(F)(F)F)c(Cl)cc23)C(C)C1?
IC50 (second compound 0.00316 µM): 0.129 µM; IC50 (second compound 0.01 µM): 0.169 µM; IC50 (second compound 0.0316 µM): 0.154 µM; IC50 (second compound 0.1 µM): 0.13 µM; IC50 (second compound 0.316 µM): 0.18 µM; IC50 (second compound 1 µM): 0.144 µM; viability, T/C (second compound 0.00316 µM, first compound 0.00316 µM): 107%; viability, T/C (second compound 0.00316 µM, first compound 0.01 µM): 100%; viability, T/C [1]: 81.2%; viability, T/C [2]: 61.8%; viability, T/C [3]: 22.7%; viability, T/C [4]: 29.7%; viability, T/C (second compound 0.01 µM, first compound 0.00316 µM): 93.5%; viability, T/C (second compound 0.01 µM, first compound 0.01 µM): 95.3%; viability, T/C [7]: 80.9%; viability, T/C [8]: 70%; viability, T/C [9]: 21.7%; viability, T/C [10]: 30.7%; viability, T/C (second compound 0.0316 µM, first compound 0.00316 µM): 93.5%; viability, T/C (second compound 0.0316 µM, first compound 0.01 µM): 91%; viability, T/C [13]: 87.7%; viability, T/C [14]: 64.9%; viability, T/C [15]: 23.6%; viability, T/C [16]: 27%; viability, T/C (second compound 0.1 µM, first compound 0.00316 µM): 94.9%; viability, T/C (second compound 0.1 µM, first compound 0.01 µM): 94.9%; viability, T/C [19]: 77.4%; viability, T/C [20]: 61%; viability, T/C [21]: 23.6%; viability, T/C [22]: 31.7%; viability, T/C (second compound 0.316 µM, first compound 0.00316 µM): 93.8%; viability, T/C (second compound 0.316 µM, first compound 0.01 µM): 97.1%; viability, T/C [25]: 89.4%; viability, T/C [26]: 75.7%; viability, T/C [27]: 23.3%; viability, T/C [28]: 27.6%; viability, T/C (second compound 1 µM, first compound 0.00316 µM): 105%; viability, T/C (second compound 1 µM, first compound 0.01 µM): 97.9%; viability, T/C [31]: 78.9%; viability, T/C [32]: 65.2%; viability, T/C [33]: 25.1%; viability, T/C [34]: 29.7%
